According to publication PMC5862592, “CDK8/19 inhibition induces premature G1/S transition and ATR-dependent cell death in prostate cancer cells” (Oncotarget, 2018):
Where two headings read alike, the source gives them in different places.

Tests used:
Test in all cases: biochemical
Set-up in all cases: KINOMEscan active site-directed competition binding assay (DiscoveRx), 456 kinases, per cent of control at 300 nM
Conditions in all cases: read-out: Percent of Control (%)
[1] = molecular target: T1, ABL1(H396P)-nonphosphorylated (Homo sapiens, UniProt P00519, H396P)
T1 construct: nonphosphorylated
How it was run: (§1)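 Binding was measured with an active site-directed competition binding assay that quantifies compound–kinase interactions. Test compounds were screened at 300 nmol/L across a 456-kinase panel.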

BRSK1 = BRSK1 (Homo sapiens, UniProt Q8TDC3)
How it was run: as §1

DCAMKL3 = molecular target: T2, DCAMKL3 (Homo sapiens, UniProt Q9C098)
T2 construct: gene DCLK3
How it was run: as §1

EPHA1 = EPHA1 (Homo sapiens, UniProt P21709)
How it was run: as §1

EPHB4 = EPHB4 (Homo sapiens, UniProt P54760)
How it was run: as §1

FES = FES (Homo sapiens, UniProt P07332)
How it was run: as §1

KIT(D816V) = KIT(D816V) (Homo sapiens, UniProt P10721, D816V)
KIT(D816V), sequence (P10721 whole entry D816V): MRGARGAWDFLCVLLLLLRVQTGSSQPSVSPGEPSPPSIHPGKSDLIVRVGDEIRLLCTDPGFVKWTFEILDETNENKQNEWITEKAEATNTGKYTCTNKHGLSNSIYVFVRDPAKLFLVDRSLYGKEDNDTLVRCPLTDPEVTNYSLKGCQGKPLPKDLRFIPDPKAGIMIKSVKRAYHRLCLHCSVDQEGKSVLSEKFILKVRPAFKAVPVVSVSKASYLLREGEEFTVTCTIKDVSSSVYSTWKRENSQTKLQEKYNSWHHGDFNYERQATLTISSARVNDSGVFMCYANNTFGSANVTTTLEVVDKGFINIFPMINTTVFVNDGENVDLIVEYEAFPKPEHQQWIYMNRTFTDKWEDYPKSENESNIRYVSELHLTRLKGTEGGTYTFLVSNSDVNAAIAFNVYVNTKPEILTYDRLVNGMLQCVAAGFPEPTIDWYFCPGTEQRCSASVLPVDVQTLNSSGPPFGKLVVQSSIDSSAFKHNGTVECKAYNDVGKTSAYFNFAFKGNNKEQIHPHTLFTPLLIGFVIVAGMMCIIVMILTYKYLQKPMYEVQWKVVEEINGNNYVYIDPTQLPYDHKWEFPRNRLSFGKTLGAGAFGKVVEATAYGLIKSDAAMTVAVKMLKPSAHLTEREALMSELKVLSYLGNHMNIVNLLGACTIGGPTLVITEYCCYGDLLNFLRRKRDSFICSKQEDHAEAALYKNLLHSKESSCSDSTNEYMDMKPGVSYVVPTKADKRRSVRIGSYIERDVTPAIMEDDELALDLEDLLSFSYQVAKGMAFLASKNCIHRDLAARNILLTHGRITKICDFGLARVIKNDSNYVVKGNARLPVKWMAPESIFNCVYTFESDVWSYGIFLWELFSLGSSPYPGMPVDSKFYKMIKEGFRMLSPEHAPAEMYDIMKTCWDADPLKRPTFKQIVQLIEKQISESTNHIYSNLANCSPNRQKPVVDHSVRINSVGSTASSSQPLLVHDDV
How it was run: as §1

KIT(L576P) = KIT(L576P) (Homo sapiens, UniProt P10721, L576P)
KIT(L576P), sequence (P10721 whole entry L576P): as the sequence (P10721 whole entry D816V) above, with L576P, V816D counted along it
How it was run: as §1

MARK1 = MARK1 (Homo sapiens, UniProt Q9P0L2)
MARK1, sequence (Q9P0L2 whole entry): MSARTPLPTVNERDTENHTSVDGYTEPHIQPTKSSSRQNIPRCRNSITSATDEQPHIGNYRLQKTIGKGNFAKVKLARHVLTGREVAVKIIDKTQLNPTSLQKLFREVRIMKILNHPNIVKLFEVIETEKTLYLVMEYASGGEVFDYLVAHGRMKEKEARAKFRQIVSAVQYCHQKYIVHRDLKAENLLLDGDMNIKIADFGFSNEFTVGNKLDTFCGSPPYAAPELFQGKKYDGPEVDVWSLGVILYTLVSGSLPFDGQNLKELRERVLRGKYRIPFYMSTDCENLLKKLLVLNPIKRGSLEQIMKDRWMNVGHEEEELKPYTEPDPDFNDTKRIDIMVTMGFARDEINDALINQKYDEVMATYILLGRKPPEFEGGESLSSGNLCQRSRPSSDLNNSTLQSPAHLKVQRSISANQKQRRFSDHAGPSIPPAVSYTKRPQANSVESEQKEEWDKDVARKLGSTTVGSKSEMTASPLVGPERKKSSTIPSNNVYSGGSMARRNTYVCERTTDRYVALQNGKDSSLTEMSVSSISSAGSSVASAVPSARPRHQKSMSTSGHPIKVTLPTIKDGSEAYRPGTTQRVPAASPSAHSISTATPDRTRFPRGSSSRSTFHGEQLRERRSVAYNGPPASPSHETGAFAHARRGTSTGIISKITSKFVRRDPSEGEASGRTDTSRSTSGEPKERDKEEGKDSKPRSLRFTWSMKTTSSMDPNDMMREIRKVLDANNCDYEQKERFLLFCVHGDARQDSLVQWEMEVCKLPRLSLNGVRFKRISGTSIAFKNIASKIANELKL
How it was run: as §1

NEK4 = NEK4 (Homo sapiens, UniProt P51957)
NEK4, sequence (P51957 whole entry): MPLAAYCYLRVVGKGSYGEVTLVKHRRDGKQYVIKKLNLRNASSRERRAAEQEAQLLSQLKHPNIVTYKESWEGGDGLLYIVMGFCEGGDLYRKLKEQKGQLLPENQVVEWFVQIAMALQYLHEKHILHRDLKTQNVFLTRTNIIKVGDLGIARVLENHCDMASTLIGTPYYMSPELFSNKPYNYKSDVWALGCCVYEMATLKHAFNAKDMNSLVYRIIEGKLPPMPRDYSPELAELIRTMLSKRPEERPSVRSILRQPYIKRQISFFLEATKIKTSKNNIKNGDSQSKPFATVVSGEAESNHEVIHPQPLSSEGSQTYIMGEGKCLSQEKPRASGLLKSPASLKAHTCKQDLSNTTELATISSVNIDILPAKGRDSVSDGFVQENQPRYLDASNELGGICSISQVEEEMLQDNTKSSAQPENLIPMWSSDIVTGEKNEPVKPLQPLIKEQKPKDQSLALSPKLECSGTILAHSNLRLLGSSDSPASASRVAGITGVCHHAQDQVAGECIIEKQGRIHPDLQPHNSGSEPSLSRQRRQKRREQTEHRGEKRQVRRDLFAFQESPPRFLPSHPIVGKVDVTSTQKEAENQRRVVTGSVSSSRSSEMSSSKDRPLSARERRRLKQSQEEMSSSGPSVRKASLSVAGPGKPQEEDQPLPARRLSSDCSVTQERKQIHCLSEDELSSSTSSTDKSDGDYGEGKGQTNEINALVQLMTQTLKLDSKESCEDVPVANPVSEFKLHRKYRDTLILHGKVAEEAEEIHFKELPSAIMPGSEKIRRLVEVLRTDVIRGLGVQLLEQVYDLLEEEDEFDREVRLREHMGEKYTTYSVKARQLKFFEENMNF
How it was run: as §1

PAK1 = PAK1 (Homo sapiens, UniProt Q13153)
How it was run: as §1

PCTK1 = molecular target: T3, PCTK1 (Homo sapiens, UniProt Q00536)
T3 construct: gene CDK16
How it was run: as §1

PHKG1 = PHKG1 (Homo sapiens, UniProt Q16816)
PHKG1, sequence (Q16816 whole entry): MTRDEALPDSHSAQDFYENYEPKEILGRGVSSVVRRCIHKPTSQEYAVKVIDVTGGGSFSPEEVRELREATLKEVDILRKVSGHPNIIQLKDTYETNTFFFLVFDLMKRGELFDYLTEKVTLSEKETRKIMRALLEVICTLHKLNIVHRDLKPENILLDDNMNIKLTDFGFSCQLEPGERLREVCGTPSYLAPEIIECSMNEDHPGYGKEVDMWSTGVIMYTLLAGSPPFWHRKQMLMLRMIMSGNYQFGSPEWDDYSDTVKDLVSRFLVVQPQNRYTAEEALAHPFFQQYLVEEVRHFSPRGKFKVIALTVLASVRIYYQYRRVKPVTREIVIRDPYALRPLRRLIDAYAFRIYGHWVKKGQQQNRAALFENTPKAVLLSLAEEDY
How it was run: as §1

PIK3CA(C420R) = PIK3CA(C420R) (Homo sapiens, UniProt P42336, C420R)
How it was run: as §1

PIM1 = PIM1 (Homo sapiens, UniProt P11309)
How it was run: as §1

PRKCE = PRKCE (Homo sapiens, UniProt Q02156)
How it was run: as §1

PRKCH = PRKCH (Homo sapiens, UniProt P24723)
How it was run: as §1

RET(V804M) = RET(V804M) (Homo sapiens, UniProt P07949, V804M)
How it was run: as §1

SRPK2 = SRPK2 (Homo sapiens, UniProt P78362)
How it was run: as §1

STK16 = STK16 (Homo sapiens, UniProt O75716)
How it was run: as §1

TAOK1 = TAOK1 (Homo sapiens, UniProt Q7L7X3)
TAOK1, sequence (Q7L7X3 whole entry): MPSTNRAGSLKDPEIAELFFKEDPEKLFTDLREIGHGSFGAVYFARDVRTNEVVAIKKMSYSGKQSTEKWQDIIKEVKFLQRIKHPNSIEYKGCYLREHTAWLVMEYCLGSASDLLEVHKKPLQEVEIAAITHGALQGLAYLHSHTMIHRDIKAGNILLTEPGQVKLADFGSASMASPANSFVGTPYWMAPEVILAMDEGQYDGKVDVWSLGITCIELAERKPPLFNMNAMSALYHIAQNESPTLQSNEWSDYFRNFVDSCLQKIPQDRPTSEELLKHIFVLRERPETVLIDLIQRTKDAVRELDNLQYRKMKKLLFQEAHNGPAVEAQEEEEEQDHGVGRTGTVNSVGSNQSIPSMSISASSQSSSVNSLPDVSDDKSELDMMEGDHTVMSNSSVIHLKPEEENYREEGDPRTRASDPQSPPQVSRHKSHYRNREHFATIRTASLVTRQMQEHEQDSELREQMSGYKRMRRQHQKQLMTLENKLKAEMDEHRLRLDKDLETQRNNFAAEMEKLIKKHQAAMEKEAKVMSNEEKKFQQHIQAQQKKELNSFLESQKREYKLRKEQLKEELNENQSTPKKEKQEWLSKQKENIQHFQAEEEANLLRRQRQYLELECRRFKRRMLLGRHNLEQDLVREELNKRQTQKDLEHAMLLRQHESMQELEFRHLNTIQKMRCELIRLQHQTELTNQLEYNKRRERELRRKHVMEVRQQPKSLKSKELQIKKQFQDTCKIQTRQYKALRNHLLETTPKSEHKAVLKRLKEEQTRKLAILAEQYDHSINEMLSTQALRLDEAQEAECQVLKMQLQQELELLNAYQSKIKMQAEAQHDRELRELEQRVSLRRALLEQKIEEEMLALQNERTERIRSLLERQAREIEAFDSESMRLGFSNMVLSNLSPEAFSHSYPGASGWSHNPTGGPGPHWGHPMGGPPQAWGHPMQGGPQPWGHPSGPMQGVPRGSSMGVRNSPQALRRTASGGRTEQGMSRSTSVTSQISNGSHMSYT
How it was run: as §1

TRKC = molecular target: T4, TRKC (Homo sapiens, UniProt Q16288)
T4 construct: gene NTRK3
T4 sequence (Q16288 whole entry): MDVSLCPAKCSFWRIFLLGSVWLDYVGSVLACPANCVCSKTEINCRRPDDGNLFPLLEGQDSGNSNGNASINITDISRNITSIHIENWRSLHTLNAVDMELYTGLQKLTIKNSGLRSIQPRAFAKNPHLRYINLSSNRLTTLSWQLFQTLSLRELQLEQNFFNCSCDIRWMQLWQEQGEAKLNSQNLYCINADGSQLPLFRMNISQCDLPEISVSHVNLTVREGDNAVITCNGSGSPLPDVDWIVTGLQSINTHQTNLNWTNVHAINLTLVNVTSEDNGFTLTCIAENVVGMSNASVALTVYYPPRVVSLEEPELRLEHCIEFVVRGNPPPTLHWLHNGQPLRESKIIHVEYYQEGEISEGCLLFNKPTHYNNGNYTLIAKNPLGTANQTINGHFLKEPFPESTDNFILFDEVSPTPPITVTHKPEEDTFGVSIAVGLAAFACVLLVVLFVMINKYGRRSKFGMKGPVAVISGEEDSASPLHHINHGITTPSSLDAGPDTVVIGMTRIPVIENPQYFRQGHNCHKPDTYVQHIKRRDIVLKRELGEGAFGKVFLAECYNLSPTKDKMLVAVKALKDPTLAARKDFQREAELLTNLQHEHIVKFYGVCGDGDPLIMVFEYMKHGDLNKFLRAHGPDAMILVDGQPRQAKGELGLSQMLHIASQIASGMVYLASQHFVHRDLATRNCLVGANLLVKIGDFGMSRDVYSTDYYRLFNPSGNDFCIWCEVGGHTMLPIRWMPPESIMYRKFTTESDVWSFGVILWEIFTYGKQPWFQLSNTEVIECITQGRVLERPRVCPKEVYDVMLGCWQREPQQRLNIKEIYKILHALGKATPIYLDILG
How it was run: as §1

Compound: O=C(/C=C/c1cnccc1-c1ccc(F)cc1)Nc1ccc(CCc2nnco2)cc1 [T-418, (2E)-3-(4-(4-fluorophenyl)pyridin-3-yl)-N-(4-(2-(1,3,4-oxadiazol-2-yl)ethyl)phenyl)acrylamide]
- remaining binding at 0.3 µM ([1]; sheet T-418): 97%
- remaining binding at 0.3 µM (BRSK1; sheet T-418): 100%
- remaining binding at 0.3 µM (DCAMKL3; sheet T-418): 83%
- remaining binding at 0.3 µM (EPHA1; sheet T-418): 71%
- remaining binding at 0.3 µM (EPHB4; sheet T-418): 96%
- remaining binding at 0.3 µM (FES; sheet T-418): 83%
- remaining binding at 0.3 µM (KIT(D816V); sheet T-418): 96%
- remaining binding at 0.3 µM (KIT(L576P); sheet T-418): 100%
- remaining binding at 0.3 µM (MARK1; sheet T-418): 100%
- remaining binding at 0.3 µM (NEK4; sheet T-418): 100%
- remaining binding at 0.3 µM (PAK1; sheet T-418): 76%
- remaining binding at 0.3 µM (PCTK1; sheet T-418): 98%
- remaining binding at 0.3 µM (PHKG1; sheet T-418): 90%
- remaining binding at 0.3 µM (PIK3CA(C420R); sheet T-418): 86%
- remaining binding at 0.3 µM (PIM1; sheet T-418): 75%
- remaining binding at 0.3 µM (PRKCE; sheet T-418): 39%
- remaining binding at 0.3 µM (PRKCH; sheet T-418): 88%
- remaining binding at 0.3 µM (RET(V804M); sheet T-418): 100%
- remaining binding at 0.3 µM (SRPK2; sheet T-418): 50%
- remaining binding at 0.3 µM (STK16; sheet T-418): 86%
- remaining binding at 0.3 µM (TAOK1; sheet T-418): 100%
- remaining binding at 0.3 µM (TRKC; sheet T-418): 82%

Compound: Cc1ncccc1Oc1sc(C(N)=O)c2c1-c1c(cnn1C)CC2 [T-474, 1-methyl-8-((2-methylpyridin-3-yl)oxy)-4,5-dihydro-1H-thieno[3,4-g]indazole-6-carboxamide]
- remaining binding at 0.3 µM [1]: 100%
- remaining binding at 0.3 µM (BRSK1): 100%
- remaining binding at 0.3 µM (DCAMKL3): 76%
- remaining binding at 0.3 µM (EPHA1): 73%
- remaining binding at 0.3 µM (EPHB4): 100%
- remaining binding at 0.3 µM (FES): 100%
- remaining binding at 0.3 µM (KIT(D816V)): 94%
- remaining binding at 0.3 µM (KIT(L576P)): 100%
- remaining binding at 0.3 µM (MARK1): 81%
- remaining binding at 0.3 µM (NEK4): 100%
- remaining binding at 0.3 µM (PAK1): 94%
- remaining binding at 0.3 µM (PCTK1): 100%
- remaining binding at 0.3 µM (PHKG1): 100%
- remaining binding at 0.3 µM (PIK3CA(C420R)): 95%
- remaining binding at 0.3 µM (PIM1): 92%
- remaining binding at 0.3 µM (PRKCE): 35%
- remaining binding at 0.3 µM (PRKCH): 100%
- remaining binding at 0.3 µM (RET(V804M)): 100%
- remaining binding at 0.3 µM (SRPK2): 100%
- remaining binding at 0.3 µM (STK16): 88%
- remaining binding at 0.3 µM (TAOK1): 95%
- remaining binding at 0.3 µM (TRKC): 87%
